Data on one molecule can be found in paper PMC12592502, “Unraveling the mechanisms behind the enhanced efficacy of β-lactam-based sideromycins” (Communications Biology, 2025).

Each structure is given as a SMILES string. ≈ marks a conversion by molar mass, not a printed value. Like-named read-outs stand apart in the source and are kept apart here.

The subject of test [1] is A. baumannii ATCC 19606. Nature of the test: MIC, broth microdilution (CLSI). It counts as cell-based, Acinetobacter baumannii. Conditions: for MIC: Acinetobacter baumannii. As for the experimental part:
(§1) All bacterial strains (see description and sources Table S1) were stored at −80 °C, and grown on tryptone soya agar (TSA) at 35 °C. The iron-deprived (ID)-MHBCA (cation-adjusted Muller-Hinton Broth, Becton Dickinson, Mississauga, ON, Canada) medium was prepared as reported by refs. [21],[50]. Briefly, MHBCA was treated with 10% Chelex® 50-100 mesh (Sigma) and stirred for 6 h at room temperature. The resin was removed by filtration. Divalent Ca^2+ (CaCl2), Mg^2+ (MgCl2), and Zn^2+(ZnSO4), were then added in the iron-depleted medium at 22, 12, and 1 μg/ml respectively. Finally, the pH was adjusted to 7.3, and the medium was sterilized with a 0.2-μm filter. Regular MHBCA (i.e., not treated with Chelex®) was used to compare the inhibitory activity of conjugates in iron-sufficient conditions. The resin used for Chelex treatment was always fresh and had never been regenerated, ensuring consistent iron removal.
(§2) Minimal inhibitory concentrations (MICs) were performed using a broth microdilution technique according to the Clinical and Laboratory Standards Institute (CLSI) guidelines. MICs were determined in MHBCA and in ID-MHBCA. To check the impact of β-lactamases, MICs in the presence of a β-lactamase inhibitor were also determined. The inhibitor was homogenized at 2X the final concentration and added to the bacterial inoculum just before distributing cells into the wells containing the drug dilutions. The final concentration of each inhibitor was 4 μg/mL for clavulanic acid (tested against K. pneumoniae) and 200 μg/mL for 3-aminophenylboronic acid (tested against P. aeruginosa and A. baumannii).
A general note: In broth dilution the organism is exposed to a series of concentrations in liquid medium.

Test [2] deals with E. coli ΔampC. Description: MIC, Keio mutant. It counts as cell-based, Escherichia coli. The following applies: Escherichia coli. The procedure: as §1, §2
Test [3] deals with E. coli lptD4213. Nature of the test: MIC, hyperpermeable mutant. Conditions: Escherichia coli. It counts as cell-based, Escherichia coli. The procedure:
as §1, §2

Test [4] relates to P. aeruginosa 1020. Description: MIC, parent of efflux pump mutants. It counts as cell-based, Pseudomonas aeruginosa. Conditions: Pseudomonas aeruginosa; P. aeruginosa 1020; read-out: MIC. The procedure: as §2
Test [5] concerns P. aeruginosa 1624 ΔmexCD-oprJ, ΔmexEF-oprN. Description: MIC, efflux pump mutant. The test is classed as cell-based, Pseudomonas aeruginosa. The following applies: Pseudomonas aeruginosa. The procedure: as §2
Test [6] deals with P. aeruginosa 1625 ΔmexAB-oprM, ΔmexEF-oprN. Nature of the test: MIC, efflux pump mutant. The test is classed as cell-based, Pseudomonas aeruginosa. The following applies: Pseudomonas aeruginosa. As for the experimental part: as §2
In test [7] the test system is P. aeruginosa 2302 MexAB, MexCD, MexEF upregulated. Nature of the test: MIC, efflux pump overexpressing strain. It counts as cell-based, Pseudomonas aeruginosa. Conditions: Pseudomonas aeruginosa. As for the experimental part:
as §2

The target in test [8] is PBP1a/1b. Description: Membrane PBP binding assay, competition with Bocillin FL. Conditions: K. pneumoniae ATCC 13883 membranes. The procedure: (§3) Membrane extracts containing PBPs were obtained as described above. Briefly, all species were grown in 1 L of TSB until the OD600 reached 0.9. The washed pellet was incubated with lysozyme (400 μg/mL), DNase (10 μg/mL) RNase(10 μg/mL) and anti-protease cocktail (200 mg/20 mL). Lysis was done with a French press (20,000 psi) and membrane protein were pelleted by ultracentrifugation steps (100,000 × g). The pellet was suspended in a minimal volume (300–500 μL) of KP 0.05 M buffer at pH 7. The protein concentration in the membrane preparations was determined with the Micro BCA TM Protein Assay Kit (Thermo Fisher Scientific, Rockford, IL) using bovine serum albumin as a standard.
(§4) The PBP binding assay was done as described previously[36],[56],[57]. For each antibiotic concentration tested, a quantity of 25 to 40 μg of membrane preparation was used as the source of PBPs, depending on the species. For the purified PaPBP3, 150 ng was used in the assay. First, increasing concentrations of the test antibiotic was added to the membrane or purified PaPBP3 preparations and incubated for 10 min at 30 °C. The reporter molecule Bocillin FL was then added at 12.5 μM for the membrane PBPs preparations and at 500 nM for the pure PaPBP3 samples for an additional 20 min at 30 °C. All reactions were stopped with the addition of the Laemmli-loading buffer (Bio-Rad) containing fresh β-mercaptoethanol (Sigma). All reactions were then heated at 100°C for 3 min before migration on SDS-polyacrylamide discontinuous gel system (7.5% stacking and 10% separating). Control samples without Bocillin FL were also included to highlight autofluorescent proteins that are not PBPs.
(§5) To be able to visualize labeled PBPs after electrophoresis, gels were rinsed in water and fixed in a solution of 50% methanol and 7% acetic acid for 30 min. The fluorescent images of gels were obtained with the Typhoon FLA 9500 instrument (GE-Healthcare Bio-Sciences Inc., Baie-d’Urfé, QC, CA) using a 473 nm excitation wavelength. To obtain quantifiable data, the software Quantity One 1D analysis was used (version 4.6.6; Bio-Rad Laboratories, Richmond, CA). The volume (intensity × constant area) of each PBP was measured. […] All IC50 data were obtained from at least two independent PBP binding assays using two different sets of compound concentrations using a linear regression. The PBP profiles were confirmed, and the PBP numbering were determined using published data and individual molecular weights. […] For example, amdinocillin (Sigma) was used for PBP2 identification. […] The IC50 for PBP 2 of P. aeruginosa was measured by including the SDS-PAGE comigrating autofluorescent protein in the background, as done previously.

Test [9] deals with T1, PBP3 (Pseudomonas aeruginosa, UniProt G3XD46).
T1 construct: using bacterial membranes as the source of PBPs; endogenous in cells; host or cells: P. aeruginosa ATCC 27853 membrane preparation
Described as above. As for the experimental part:
as §3, §4, §5

T1 sequence (G3XD46 whole entry): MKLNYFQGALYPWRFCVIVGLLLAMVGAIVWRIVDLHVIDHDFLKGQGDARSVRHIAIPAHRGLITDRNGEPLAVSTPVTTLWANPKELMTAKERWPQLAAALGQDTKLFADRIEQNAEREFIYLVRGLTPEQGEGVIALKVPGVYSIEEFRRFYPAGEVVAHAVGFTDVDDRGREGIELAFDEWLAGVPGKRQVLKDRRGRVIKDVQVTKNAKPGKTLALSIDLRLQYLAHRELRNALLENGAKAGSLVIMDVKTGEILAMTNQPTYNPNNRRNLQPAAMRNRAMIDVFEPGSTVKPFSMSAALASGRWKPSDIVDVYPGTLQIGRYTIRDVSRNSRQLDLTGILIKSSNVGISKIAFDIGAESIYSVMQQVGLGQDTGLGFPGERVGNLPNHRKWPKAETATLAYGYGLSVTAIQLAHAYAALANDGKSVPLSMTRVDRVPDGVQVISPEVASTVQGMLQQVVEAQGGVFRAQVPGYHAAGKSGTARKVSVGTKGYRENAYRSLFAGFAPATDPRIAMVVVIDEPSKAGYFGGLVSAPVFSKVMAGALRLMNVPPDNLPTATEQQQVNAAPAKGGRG

What is called MIC is the lowest concentration that inhibits growth of the organism. A word on the IC50: it is the concentration that inhibits the measured activity by half. On to `CC1(C)SC2C(NC(=O)C(NC(=O)CN(CCCCNC(=O)c3cccc(O)c3O)C(=O)c3cccc(O)c3O)c3ccccc3)C(=O)N2C1C(=O)O` (stereo not shown) [BAMP, bis-catechol (azotochelin)-ampicillin], for which the minimal inhibitory concentration (MIC) in [1] (ATCC19606, ID-MHBCA (−), 0 µg/mL supplemental iron, read-out: MIC) stood at 0.2 µM (≈ 0.15 µg/mL); in test [1] (ATCC19606, ID-MHBCA + 0.1 µg/mL supplemental iron, read-out: MIC), 0.4 µM; in test [1] (ATCC19606, ID-MHBCA + 1 µg/mL supplemental iron, read-out: MIC) it was 1.6 µM; in test [1] (ATCC19606, ID-MHBCA, + 200 μg/mL APB, read-out: MIC with β-lactamase inhibitor (βI)) it was 0.1 µM; in test [1] (ATCC19606, MHBCA (+), no inhibitor, read-out: MIC), 0.4 µM (≈ 0.3 µg/mL); in [1] (ATCC19606, MHBCA, + 200 μg/mL APB, read-out: MIC with β-lactamase inhibitor (βI)) it was 0.2 µM. For the same molecule, the MIC was 0.012 µM (≈ 0.009 µg/mL) in test [2] (ID-MHBCA); 0.024 µM (≈ 0.018 µg/mL) in [2] (MHBCA); 0.024 µM (≈ 0.018 µg/mL) in test [3] (LPTD4213, lptD4213, ID-MHBCA (−)); 0.05 µM (≈ 0.0375 µg/mL) in test [3] (LPTD4213, lptD4213, MHBCA (+)); 0.4 µM (≈ 0.3 µg/mL) in test [4]; 0.4 µM (≈ 0.3 µg/mL) in test [5]. For the same molecule, the MIC worked out at 0.2 µM (≈ 0.15 µg/mL) in [6] and 0.4 µM (≈ 0.3 µg/mL) in [7]. Further, the “MIC ratio unconjugated β-lactam/conjugate” value in test [1] (ID-MHBCA) was above 1024; in test [1] (MHBCA), above 512. Further, the “MIC ratio 0/1” value in [1] (ID-MHBCA, 0 and 1 µg/mL supplemental iron (Table S2)) is on record as 8. The “MIC ratio 1/0” value in test [1] (ID-MHBCA, 1 versus 0 µg/mL supplemental iron (peer review file table)) was 8. In addition, the “MIC in combination with PAβN” value in test [1] (MHBCA, + 25 µg/mL PAβN) is listed as above 6.3 µM. Moreover, the IC50 in test [8] came out at 4240 ± 70 nM; in test [9] (P. aeruginosa ATCC 27853 membranes, read-out: IC50 PBP3) it was 160 ± 10 nM. The “IC50 value ratio βL/SID-βL, PBP3” value in test [9] (P. aeruginosa ATCC 27853, membrane) is listed as 1.5.
